Columns and labels:
[1] = target: Glutamate NMDA receptor; assay: Inhibition of NMDA-evoked increase in intracellular calcium ion in rat cortical cells; format: functional, cell-based
[2] = target: Glutamate receptor ionotropic, NMDA 2B (Rattus norvegicus, UniProt Q00960); assay: Displacement of [3H]Ro25-6981 from NR2B NMDA receptor in rat forebrain membrane; format: cell membranes
[3] = system: Mus musculus; assay: Analgesic activity against formalin-induced persistent pain in orally dosed NMRI mouse assessed as decrease in licking time relative to control; format: functional; conditions: po
[4] = Inhibition of NMDA-evoked current in EcR293 cells transfected with NR1/NR2D upto 10 uM by patch clamp method; format: functional, HEK293
[5] = target: Glutamate NMDA receptor; GRIN1/GRIN2A (Homo sapiens) (UniProt Q05586+Q12879); assay: Inhibition of NMDA-evoked current in EcR293 cells transfected with NR1/NR2A upto 10 uM by patch clamp method; format: functional, cell-based; conditions: HEK293

Sequence of Glutamate receptor ionotropic, NMDA 2B (Q00960 whole entry): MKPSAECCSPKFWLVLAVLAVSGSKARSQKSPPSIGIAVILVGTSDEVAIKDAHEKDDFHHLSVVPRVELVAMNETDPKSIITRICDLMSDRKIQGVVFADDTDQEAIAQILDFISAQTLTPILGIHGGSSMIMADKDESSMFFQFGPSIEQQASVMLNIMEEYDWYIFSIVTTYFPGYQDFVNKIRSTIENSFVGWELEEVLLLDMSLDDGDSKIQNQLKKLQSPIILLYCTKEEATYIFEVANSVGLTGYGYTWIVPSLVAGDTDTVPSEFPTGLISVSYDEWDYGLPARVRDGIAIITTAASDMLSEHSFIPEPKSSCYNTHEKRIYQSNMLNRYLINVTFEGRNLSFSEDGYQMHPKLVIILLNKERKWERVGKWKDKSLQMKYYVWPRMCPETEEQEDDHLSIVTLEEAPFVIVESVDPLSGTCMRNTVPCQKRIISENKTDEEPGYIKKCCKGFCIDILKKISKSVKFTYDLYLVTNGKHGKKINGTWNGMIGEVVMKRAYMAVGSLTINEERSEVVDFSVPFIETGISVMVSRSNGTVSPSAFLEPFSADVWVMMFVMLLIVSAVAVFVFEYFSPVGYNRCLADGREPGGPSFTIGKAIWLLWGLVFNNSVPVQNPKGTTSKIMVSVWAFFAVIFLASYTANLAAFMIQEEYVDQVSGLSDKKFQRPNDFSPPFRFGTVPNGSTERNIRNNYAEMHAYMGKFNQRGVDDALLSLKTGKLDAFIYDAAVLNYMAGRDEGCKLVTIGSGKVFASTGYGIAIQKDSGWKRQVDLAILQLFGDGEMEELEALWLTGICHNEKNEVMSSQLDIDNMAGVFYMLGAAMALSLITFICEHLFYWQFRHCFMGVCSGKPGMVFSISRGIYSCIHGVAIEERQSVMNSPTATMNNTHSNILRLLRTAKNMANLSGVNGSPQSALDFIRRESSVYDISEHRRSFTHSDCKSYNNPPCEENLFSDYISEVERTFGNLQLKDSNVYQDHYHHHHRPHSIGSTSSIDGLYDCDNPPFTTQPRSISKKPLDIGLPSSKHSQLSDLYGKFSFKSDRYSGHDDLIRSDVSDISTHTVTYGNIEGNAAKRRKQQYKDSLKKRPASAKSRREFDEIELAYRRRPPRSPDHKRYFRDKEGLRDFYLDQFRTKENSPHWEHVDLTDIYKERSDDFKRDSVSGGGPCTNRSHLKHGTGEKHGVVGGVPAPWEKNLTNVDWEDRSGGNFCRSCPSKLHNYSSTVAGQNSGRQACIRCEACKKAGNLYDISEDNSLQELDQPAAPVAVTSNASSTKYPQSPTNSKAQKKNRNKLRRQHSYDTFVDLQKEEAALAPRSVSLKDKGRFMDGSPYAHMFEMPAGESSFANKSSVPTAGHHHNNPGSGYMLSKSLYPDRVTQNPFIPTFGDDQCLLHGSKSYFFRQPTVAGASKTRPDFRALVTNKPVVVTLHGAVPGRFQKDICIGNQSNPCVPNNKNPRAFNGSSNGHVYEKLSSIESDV

Row | SMILES | IC50 [1] [nM] | IC50 [2] [nM] | inhibition [5] [%] | ED50 [3] [mg/kg] | Inhibition [4] [%]
1 | O=C(c1nc2c(O)cccc2[nH]1)N1CCC(Cc2ccccc2)CC1 | 3 | 10 |  |  | 
2 | O=C(c1nc2ccc(O)cc2[nH]1)N1CCC(Cc2ccc(F)cc2)CC1 | 1.2 | 4 |  |  | 
3 | Cc1ccccc1CC1CCN(C(=O)c2nc3cc(O)ccc3[nH]2)CC1 | 12 | 8.4 |  |  | 
4 | C[C@@H](CN1CCC(Cc2ccccc2)CC1)[C@@H](O)c1ccc(O)cc1 | 159 | 6 |  |  | 
5 | O=c1[nH]c2ccc([S+]([O-])CCN3CCC(Cc4ccc(F)cc4)CC3)cc2o1 (centres undefined) [BESONPRODIL] | 6.6 | 4 |  |  | 
6 | Nc1ccc2[nH]c(C(=O)N3CCC(Cc4ccccc4)CC3)nc2c1 | 40 | 143 |  |  | 
7 | CS(=O)(=O)Nc1ccc2[nH]c(C(=O)N3CCC(Cc4ccccc4)CC3)nc2c1 | 1.3 | 3 |  |  | 
8 | COc1cccc(CC2CCN(C(=O)c3nc4ccc(O)cc4[nH]3)CC2)c1 | 2.5 | 3.2 |  |  | 
9 | O=C(c1nc2ccc(O)cc2[nH]1)N1CCC(Oc2ccc(F)cc2)CC1 | 2.9 | 6 |  |  | 
10 | O=C(c1nc2ccc(O)cc2[nH]1)N1CCC(Cc2cccc(F)c2)CC1 | 6 | 5.2 |  |  | 

The next lines start with results.

Row | IC50 [1] [nM] | IC50 [2] [nM] | inhibition [5] [%] | SMILES | ED50 [3] [mg/kg] | Inhibition [4] [%]
11 | 2.4 | 5 |  | Cc1cccc(CC2CCN(C(=O)c3nc4ccc(O)cc4[nH]3)CC2)c1 |  | 
12 | 1.1 | 3 |  | Cc1ccc(OC2CCN(C(=O)c3nc4ccc(O)cc4[nH]3)CC2)cc1 |  | 
13 | 8.6 | 3.5 |  | CS(=O)(=O)Nc1ccc2nc(CN3CCC(Cc4ccccc4)CC3)[nH]c2c1 |  | 
14 |  | 4 | < 20 | O=C(c1nc2ccc(O)cc2[nH]1)N1CCC(Cc2ccccc2)CC1 | 1.6 | <20
15 | 8.7 | 4.4 |  | Cc1ccc(CC2CCN(C(=O)c3nc4ccc(O)cc4[nH]3)CC2)cc1 |  | 
16 | 1.7 | 14 |  | O=C(c1nc2ccc(O)cc2[nH]1)N1CCC(Oc2ccc(Cl)cc2)CC1 |  | 

— ChEMBL document CHEMBL1148684, “Benzimidazole-2-carboxamides as novel NR2B selective NMDA receptor antagonists” (Bioorg Med Chem Lett, 2006)
